From patent US20140106342A1, “METHOD OF ASSAYING DNA TOPOISOMERASES AND DNA BINDING PROTEINS USING HIGH THROUGHPUT SCREENING” (priority 2011, published 2014)
Where a chain is given by its changes, count along the chain named. Where two headings read alike, the source gives them in different places. *1 amine or outer side, *2 acyl side, *3 side chain or, on linkers, in order; H or OH if unused. Where a SMILES comes first, the peptide text is derived from it. Bridges are numbered along the chain shown (N, C = ends). Roman numbers before positions name the chains, in order. [ ]: non-standard residue; d: D form. Actinocin(9to1) = Cc1c2oc3c(C)ccc(C(=O)[*:1])c3nc-2c(C(=O)[*:2])c(N)c1=O; NMeV = CN[C@H](C(=O)O)C(C)C; Sar = CNCC(=O)O

How the values were obtained:
pHOT1 DNA = assay: Nicking of pHOT1 DNA in the absence of topo I
Procedure: . This may explain why some bifunctional alkylators are picked up by the assay. […]. Thus, about 5 compounds out of about 50 scored as potential topo I IFP at about 100 uM input of purified test drug (single asterisk, FIG. 10). A relatively high input of test drug concentrations to amplify false positives was; however, in a typical HTS experiment the concentrations would be much lower and would detect far fewer false leads. […].

human Topo I [1] = target: T1, human Topo I (Homo sapiens, UniProt P11387); assay: Solid phase topo I HTS assay (His-tag topo I on nickel coated plates, pHOT1 DNA retention by Picogreen fluorescence); type: biochemical; parameters: The intact human topo I gene was cloned as a His-tag gene; purchased TopoGEN, Inc. (Port Orange, Fla.); host or cells: baculovirus-infected Spodoptera frugiperda Sf9 cells; settings: for fold increase in DNA binding to wells due to CPT: 96 well
T1 sequence (P11387 1-765): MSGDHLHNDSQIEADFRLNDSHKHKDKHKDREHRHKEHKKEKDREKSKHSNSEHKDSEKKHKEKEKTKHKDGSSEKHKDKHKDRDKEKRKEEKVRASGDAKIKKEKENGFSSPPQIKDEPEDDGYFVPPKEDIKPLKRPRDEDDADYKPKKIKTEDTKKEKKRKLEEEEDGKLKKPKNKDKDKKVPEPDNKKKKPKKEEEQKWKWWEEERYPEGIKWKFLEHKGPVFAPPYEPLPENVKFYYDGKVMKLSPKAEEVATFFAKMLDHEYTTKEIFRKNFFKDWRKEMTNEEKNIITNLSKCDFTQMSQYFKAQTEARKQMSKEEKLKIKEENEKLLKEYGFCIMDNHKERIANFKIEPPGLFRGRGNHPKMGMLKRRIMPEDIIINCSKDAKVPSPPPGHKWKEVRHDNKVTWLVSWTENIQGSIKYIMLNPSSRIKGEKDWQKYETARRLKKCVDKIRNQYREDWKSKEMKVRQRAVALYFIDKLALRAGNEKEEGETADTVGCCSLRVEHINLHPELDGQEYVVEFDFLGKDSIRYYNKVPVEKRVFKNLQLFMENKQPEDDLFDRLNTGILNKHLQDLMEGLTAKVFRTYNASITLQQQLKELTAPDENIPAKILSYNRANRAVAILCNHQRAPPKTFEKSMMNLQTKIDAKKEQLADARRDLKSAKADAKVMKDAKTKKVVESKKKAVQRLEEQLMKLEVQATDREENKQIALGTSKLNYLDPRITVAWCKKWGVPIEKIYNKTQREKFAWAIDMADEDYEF
Procedure: FIG. 8 is a flowchart depicting the model for solid phase Topo I screening. […] Free enzyme is washed out and pHOT1 supercoiled DNA is added in a topo I assay buffer. […] Free DNA is then washed out and the relative fluorescence is measured using Picogreen staining. […] The results are expressed as an “HTS Ratio” corresponding to the RFU of experimental to RFU of negative controls (no CPT).
The unbound enzyme was removed by aspirating off the initial binding solution followed by three washes (about 200 uL each) with cold PBS containing about 0.05% Tween-20 (PBS-T). […] Drugs were dissolved in DMSO and the final DMSO concentration in the reaction never exceeded about 1%. Reactions were incubated for about 1 hr at about 37° C. and terminated by the addition of about 0.1 vol of about 1% SDS (vol:vol) followed by a about 5 min incubation at about 37° C. The reaction mixture was next aspirated and washed three times with about 200 uL PBS-T. Picogreen (about 100 ug/mL) was diluted in TE (about 1:400) and about 200 µl was added to each well followed by incubation in the dark for about 5 min. The relative fluorescence was measured at about 485 nm excitation and about 525 nm emission wavelength using a Tecan reader.
In step 5, the readout (relative fluorescent units or RFU retained in the wells) is analyzed based on what is referred to as the ‘HTS Ratio’ (RFU Experimental/RFU in negative control).
Free enzyme is washed out and pHOT1 supercoiled DNA is added in a topo I assay buffer. […] Free DNA is then washed out and the relative fluorescence is measured using Picogreen staining. […] The results are expressed as an “HTS Ratio” corresponding to the RFU of experimental to RFU of negative controls (no CPT).

human Topo I [2] = target: T1, human Topo I; assay: Topo I cleavage complex formation / liquid reactions analysed on agarose-ethidium bromide gel
Y723F topo I mutant = target: T2, Y723F topo I mutant (Homo sapiens, UniProt P11387, Y723F); assay: Solid phase assay with catalytically inactive Y723F topo I mutant; type: biochemical; settings: highest input of protein
T2 construct: purchased TopoGEN, Inc. (Port Orange, Fla.); host or cells: baculovirus expression (Sf9)
T2 sequence (P11387 1-765 Y723F): T1 sequence (P11387 1-765) with Y723F
Procedure: The unbound enzyme was removed by aspirating off the initial binding solution followed by three washes (about 200 uL each) with cold PBS containing about 0.05% Tween-20 (PBS-T). […] Drugs were dissolved in DMSO and the final DMSO concentration in the reaction never exceeded about 1%. Reactions were incubated for about 1 hr at about 37° C. and terminated by the addition of about 0.1 vol of about 1% SDS (vol:vol) followed by a about 5 min incubation at about 37° C.

[3] = test drug about 100 uM, about 1.0 = minus CPT control, solid phase

## Oc1ncc(N(CCCl)CCCl)c(O)n1 [Uracil mustard]
pHOT1 DNA
  single strand DNA nicks in pHOT1 DNA: induce single strand DNA nicks
Human Topo I [1]
  HTS Ratio (RFU experimental / RFU negative control, no CPT): about 1.1

## CC/C(=C(\c1ccccc1)c1ccc(OCCN(C)C)cc1)c1ccccc1 [Tamoxifen]
Human Topo I [2]; data not shown, less than with CPT
  induction of topo I cleavages: induced topo I cleavages

## Cc1c2oc3c(C)ccc(C(=O)N[C@@H]4C(=O)N[C@H](C(C)C)C(=O)N5CCC[C@H]5C(=O)N(C)CC(=O)N(C)[C@@H](C(C)C)C(=O)O[C@@H]4C)c3nc-2c(C(=O)N[C@@H]2C(=O)N[C@H](C(C)C)C(=O)N3CCC[C@H]3C(=O)N(C)CC(=O)N(C)[C@@H](C(C)C)C(=O)O[C@@H]2C)c(N)c1=O [Dactinomycin] (I: T[dV]P[Sar][NMeV] / II: T[dV]P[Sar][NMeV]; ester I:1-I:C, II:1-II:C; linker I:N-II:N via Actinocin(9to1))
Human Topo I [1]; [3]
  HTS Ratio (RFU experimental / RFU negative control, no CPT): about 1.4

## O=C(c1ccc(OCCN2CCCCC2)cc1)c1c(-c2ccc(O)cc2)sc2cc(O)ccc12 [Raloxifene]
Human Topo I [1]; test drug about 100 uM, about 1.0 = minus CPT control, solid phase, listed as Reloxifene
  HTS Ratio (RFU experimental / RFU negative control, no CPT): about 2.0

## CCc1c2c(nc3ccc(OC(=O)N4CCC(N5CCCCC5)CC4)cc13)-c1cc3c(c(=O)n1C2)COC(=O)[C@]3(O)CC [Irinotecan]
Human Topo I [1]; [3]
  HTS Ratio (RFU experimental / RFU negative control, no CPT): about 1.4

## CC[C@@]1(O)C(=O)OCc2c1cc1n(c2=O)Cc2cc3ccccc3nc2-1 [CPT, Camptothecin]
Human Topo I [2]; in solution
  time for CPT induced complexes to reach a maximal stoichiometric value: within a few minutes
Y723F topo I mutant
  CPT stimulation of DNA binding with mutant protein: did not display any CPT stimulation
Human Topo I [1]; 96 well format (comparison)
  magnitude of the increase in +CPT controls: about 2.6 fold
Human Topo I [1]; 384 well format
  magnitude of the increase in +CPT controls: about 1.7 fold
Human Topo I [1]; CPT reactions, about 512 units topo I, about 5 uM CPT, no-CPT about 20%
  fraction of well-bound DNA that is nicked form II: about 70%
Human Topo I [1]; CPT reactions, about 512 units topo I, about 5 uM CPT, no-CPT about 80%
  fraction of well-bound DNA that is relaxed (Ir): about 30%
Human Topo I [1]; CPT titration, about 512 units topo I, about 100 ng DNA
  drug concentration dependency of solid phase readout: did not display drug concentration dependency
Human Topo I [1]; DNA recovered from wells, gel analysis
  magnitude of the increase in form II DNA in +CPT wells over no drug controls: 2-3 fold
Human Topo I [1]; about 16-64 units topo I, about 5 uM CPT
  fold increase in DNA binding to wells due to CPT: 1.2-2 fold
Human Topo I [1]; about >100 units topo I, about 5 uM CPT
  fold increase in DNA binding to wells due to CPT: 2.5-2.7 fold
Human Topo I [1]; high topo I inputs (about 1024, about 512 units), SD +/- about 153, -CPT mean about 1181
  mean relative fluorescence, +CPT: about 2877
Human Topo I [1]; solid phase
  time course of CPT induced complexes: continue to accumulate over several hours
Human Topo I [1]; typical reaction, - control about 2000
  relative fluorescence (RFU) of a typical reaction, + control: about 4000 fluorescent units

## CNNCc1ccc(C(=O)NC(C)C)cc1 [Procarbazine]
Human Topo I [1]; [3]
  HTS Ratio (RFU experimental / RFU negative control, no CPT): about 1.65

## N[C@@H](Cc1ccc(N(CCCl)CCCl)cc1)C(=O)O [Melphalan]
Human Topo I [1]; [3]
  HTS Ratio (RFU experimental / RFU negative control, no CPT): 1.2-1.3

## O=C1c2c(O)ccc(O)c2C(=O)c2c(NCCNCCO)ccc(NCCNCCO)c21 [mitoxantrone]
Human Topo I [1]; solid phase HTS
  effect on DNA binding to bound topo I: strongly reduce DNA binding
